Source: patent US4455441A, “Attractant termiticidal compounds, compositions and methods of use therefor” (Research Foundation of State University of New York, priority 1982, dated 1984)
Read-outs that look alike come from different tables or passages of the source.

Key:
Reticulitermes flavipes = experiment: Bioassay of fluoroalkanols (Petri dish assay), termite toxicity; type: in vivo, Reticulitermes flavipes Kollar; conditions: quantity impregnated in filter pads required to cause 50% mortality at 3 days
Experimental: Test compounds were dissolved in dry diethyl ether or dichloromethane and a 1.0 ml portion of the solution was pipetted onto a Gelman sterile 47-mm cellulose pad (Howard and Haverty, 1979). The ether was allowed to evaporate for 10 min, 1.0 ml of distilled water was added to the pad, and the pad was placed in a tight-sealing Gelman 50-mm plastic Petri dish.
Termites (Reticulitermes flavipes Kollar) were collected from rotten logs and tree stumps on the Stony Brook campus. Colonies were kept in trash cans in an insectary (85% RH, 27° C.) for a period of about 6 months before use in this experiment. The experiments were performed in an incubator at +28° C. Undifferentiated larvae above the third instar ("workers") were used in all toxicity tests. Termites were first shaken loose from the interior of the wood, then transferred using mouth aspirators and with soft forceps. The termites were held on filter paper for 24 hours, twenty healthy termites were added to each dish, and the number of dead which were then removed to prevent cannibalism was recorded at daily intervals.
^c Quantity of fluoro compound impregnated in filter pads required to
cause 50% mortality at 3 days.

mice = conditions: based on Pattison (1959), cited from earlier work
termites [1] = experiment: Maximum attractiveness (above 50% level); type: in vivo
termites [2] = experiment: Trail activity (trail following by termites); type: in vivo; conditions: at 5 × 10^-6 g/10 c (highest conc. tested)
Text: ^a Value is minimum quantity (in grams) per 10 cm required to elicit
trailfollowing by a total of 8/20 termites in four trails.
^b Maximum number of termites following at 5 × 10^-6 g/10 c
(highest conc. tested).

[3] = estimate from comparison compound C12 satd.
[4] = estimate from comparison compound C18 satd.
[5] = saturated omega-fluoro compound

| Molecule | Median Lethal-dose (Reticulitermes flavipes) | Estimated LD50 (mice) (mice; [3]) [mg/kg] | Estimated LD50 (mice) (mice; [4]) [mg/kg] | Estimated LD50 (mice) (mice; estimate from comparison compound C10 satd.) [mg/kg] | Maximum attractiveness (above 50% level) (termites [1]) | Maximum attractiveness (above 50% level), minimum (termites [1]; minimum) | Trail activity, maximum number of termites following (termites [2]) | Estimated LD50 (mice) (mice; [5]) [mg/kg] |
| --- | --- | --- | --- | --- | --- | --- | --- | --- |
| 16-fluoro-Z/E 9-hexadecen-1-ol | 0.020 mg/dish | 1.5 | 4.0 |  |  |  |  |  |
| OCC/C=C\CCCCCCF [10-fluoro-(Z)-3-decen-1-ol] | .0095 mg/dish |  |  | 1.0 |  |  |  |  |
| OCC/C=C\CCCCCCCCF [12-Fluoro-(Z)-3-dodecen-1-ol] | .0093 mg/dish | 1.5 |  |  | 10^-7 9 |  |  |  |
| OCC/C=C\C/C=C\CCCCCF [12-fluoro-(Z),(Z)-3,6-dodecadien-1-ol] | .012 mg/dish | 1.5 |  |  | 10^-7 9 | 10^-8 |  |  |
| OCCCCCCCC/C=C/CCCCCCF [16-fluoro-Z/E 9-hexadecen-1-ol] | 0.024 mg/dish | 1.5 | 4.0 |  |  |  |  |  |
| OCCCCCCCCCCCF [F(CH2)10 CH2 OH] | .062 mg/dish |  |  |  |  |  | 6/20 | > 100 |
| OCCCCCCCCCCCCF [F(CH2)11 CH2 OH, 12-fluorododecan-1-ol] | .0077 mg/dish |  |  |  |  |  | 6/20 | 1.5 |
